From ChEMBL document CHEMBL1136837, “Unified QSAR approach to antimicrobials. 4. Multi-target QSAR modeling and comparative multi-distance study of the giant components of antiviral drug-drug complex networks” (Bioorg Med Chem, 2009)

Columns and labels:
[1] = test system: Human parainfluenza virus 2; assay: Antiviral activity against Human parainfluenza virus 2; type: functional, organism-based; conditions: Human orthorubulavirus 2
Respirovirus muris = assay: Antiviral activity against Sendai virus; type: functional, organism-based
Influenza B virus = assay: Antiviral activity against influenza B virus; type: functional, organism-based
H2N2 subtype = assay: Antiviral activity against influenza H2N2 virus; type: functional, organism-based; conditions: Influenza A virus
[2] = test system: unidentified influenza virus; assay: Antiviral activity against influenza virus; type: functional, organism-based
Influenza A virus = assay: Antiviral activity against influenza H1N1 virus; type: functional, organism-based
Influenza A virus H3N2 = assay: Antiviral activity against influenza H3N2 virus; type: functional, organism-based, H3N2 subtype
H5N1 subtype = assay: Antiviral activity against influenza H5N1 virus; type: functional, organism-based; conditions: Influenza A virus
Enterovirus = assay: Antiviral activity against Enterovirus; type: functional, organism-based
Human rhinovirus sp. = assay: Antiviral activity against Human rhinovirus; type: functional, organism-based
Echovirus = assay: Antiviral activity against Echovirus; type: functional, organism-based
Coxsackievirus = assay: Antiviral activity against Coxsackievirus; type: functional, organism-based
Human respirovirus 1 = assay: Antiviral activity against Human parainfluenza virus 1; type: functional, organism-based
Human respirovirus 3 = assay: Antiviral activity against Human parainfluenza virus 3; type: functional, organism-based
Hepatitis C virus = assay: Antiviral activity against Hepatitis C virus c; type: functional, organism-based, Hepacivirus hominis
Enterovirus C = assay: Antiviral activity against Poliovirus; type: functional, organism-based
[3] = test system: Human immunodeficiency virus 1; assay: Antiviral activity against HIV1; type: functional, organism-based
Cowpox virus = assay: Antiviral activity against Cowpox virus; type: functional, organism-based
Camelpox virus = assay: Antiviral activity against Camelpox virus; type: functional, organism-based
Monkeypox virus = assay: Antiviral activity against Monkeypox virus; type: functional, organism-based
Vaccinia virus = assay: Antiviral activity against Vaccinia virus; type: functional, organism-based, Orthopoxvirus vaccinia; conditions: Orthopoxvirus vaccinia
Human adenovirus 2 = assay: Antiviral activity against Human adenovirus 2; type: functional, organism-based; conditions: Human mastadenovirus C
Influenza C virus = assay: Antiviral activity against Influenza C virus; type: functional, organism-based

Q: Which results are given for `CC(C)C(=O)N[C@H]1[C@H]([C@H](O)[C@H](O)CO)OC(C(=O)O)=C[C@@H]1N=[N+]=[N-]`?
A: IC50 [1]: 2200 nM; IC50 (Respirovirus muris): 100 nM

Q: What does the source list for `CCOC(=O)C1=C[C@@H](OC(CC)CC)[C@H](NC(C)=O)[C@@H](N)C1` [OSELTAMIVIR]?
A: IC50 (Influenza B virus): 2100 nM; IC50 (H2N2 subtype): 1450 nM; IC50 [2]: 45000 nM; IC50 (Influenza A virus): 2500 nM; IC50 (Influenza A virus H3N2): 260 nM; IC50 (H5N1 subtype): 34000 nM

Q: What does the source list for `CCO/N=C/c1ccc(OCCC2CCN(c3ccc(Cl)nn3)CC2)cc1`?
A: IC50 (Enterovirus): 1 nM; IC50 (Human rhinovirus sp.): 26 nM; IC50 (Echovirus): 67 nM; IC50 (Coxsackievirus): 825 nM

Q: Which results are given for `CC(C)C(=O)N[C@H]1[C@H]([C@H](O)[C@H](O)CO)OC(C(=O)O)=C[C@@H]1NS(=O)(=O)C(Cl)Cl`?
A: IC50 [1]: 1900 nM; IC50 (Respirovirus muris): 1800 nM; IC50 (Human respirovirus 1): 1200 nM; IC50 (Human respirovirus 3): 2000 nM

Q: For `C=C[C@@H]1C[C@]1(NC(=O)[C@@H]1C[C@@H](Oc2cc(-c3ccccc3)nc3cc(OC)ccc23)CN1C(=O)[C@H](CC(C)C)NC(=O)OC(C)(C)C)C(=O)O`, which IC50 (Hepatitis C virus) is on record?
A: The IC50 was 492 nM.

Q: For `C/C=C\[C@@H]1C[C@H](C(=O)O)N[C@H]1[C@@H](NC(C)=O)[C@](C)(CCC)OC`, which IC50 (Human respirovirus 1) is on record?
A: Its IC50 is 14100 nM.

Q: For `O=c1n(Cc2nc3ccccc3n2CCCCO)c2cnccc2n1C1CC1`, which IC50 (Enterovirus C) is on record?
A: Its IC50 is 200000 nM.

Q: What about the IC50 (Respirovirus muris) of the same compound?
A: Its IC50 is 25000 nM.

Q: What about the IC50 (Human rhinovirus sp.) of the same compound?
A: The IC50 was 200000 nM.

Q: And the IC50 [2]?
A: Its IC50 is 200000 nM.

Q: And the IC50 [3]?
A: The IC50 was 200000 nM.

Q: Which results are given for `NC(=O)c1ncn([C@@H]2O[C@H](CO)[C@@H](O)[C@H]2O)n1` [RIBAVIRIN]?
A: IC50 (Cowpox virus): 410000 nM; IC50 (Influenza B virus): 19000 nM; IC50 (H2N2 subtype): 13800 nM; IC50 (Camelpox virus): 215000 nM; IC50 (Monkeypox virus): 145000 nM; IC50 (Vaccinia virus): 281000 nM; IC50 (Influenza A virus): 7700 nM; IC50 (Human adenovirus 2): 100000 nM; IC50 (Influenza A virus H3N2): 20000 nM

Q: Which IC50 (Influenza B virus) does the source give for `NC(=O)c1nc(F)cnc1O` here?
A: Its IC50 is 89 nM.

Q: What about the IC50 (H2N2 subtype) of the same compound?
A: Its IC50 is 48 nM.

Q: And the IC50 (Influenza C virus)?
A: The IC50 was 44 nM.

Q: What about the IC50 (Influenza A virus) of the same compound?
A: The IC50 was 160 nM.
